Measurements reported in article PMC11071649, “Synthesis and Selective Anticancer Activity Evaluation of 2-phenylacrylonitrile Derivatives as Tubulin Inhibitors” (Current Medicinal Chemistry, 2024).

Experiments:
Type in all cases: cell-based, human
[1] = tested on: AGS gastric cancer cell; test: MTT anti-proliferative assay, AGS; conditions: for IC50: MTT, 48 h
Method: (§1) The anti-proliferation activities of the synthesized analogs were assessed by an in vitro MTT assay conducted on thirteen human cell lines. Their cytotoxic activities were evaluated by measuring the inhibition of net cell growth. […]
(§2) 1.6. Cell lines and cell culture
(§3) MTT was purchased from Sigma-Aldrich Co. (St. Louis, MO, USA). The PI and Annexin V-FITC apoptosis detection kit were purchased from Invitrogen (Eugene, OR, USA). All human cell lines were used in this study. […]
(§4) cell, MCF-7 breast cancer cell, MCF-10A normal breast cell, Raji B lymphoblastoid cell and diffuse large B-cell lymphoma SU-DHL-10 cell were initially purchased from American Type Culture Collection (ATCC, Manassas, Virginia). media, DMEM, and FBS were provided from Gibco Company.
(§5) 1.7. Cell growth inhibition assay (MTT assay)
(§6) The experiment was carried out according to the method of reference. Briefly, cells were plated in 96-well plates at a den- […]
(§7) the anti-proliferative activities were determined by MTT assay. […]
(§8) (Becton-Dickinson, Franklin Lakes, NJ). […]

[2] = tested on: HepG2 hepatoma cell; test: MTT anti-proliferative assay, HepG2; conditions: for IC50: MTT, 48 h, read-out: IC50 HepG-2
Method: as §1, §2, §3, §4, §5, §6, §7, §8

[3] = tested on: SGC-7901 early differentiation gastric cancer cell; test: MTT anti-proliferative assay, SGC-7901; conditions: for IC50: MTT, 48 h
Method: as §1, §2, §3, §4, §5, §6, §7, §8

[4] = tested on: MCF-7 breast cancer cell; test: MTT anti-proliferative assay, MCF-7; conditions: for IC50: MTT, 48 h
Method: as §1, §2, §3, §4, §5, §6, §7, §8

[5] = tested on: Raji B lymphoblastoid cell; test: MTT anti-proliferative assay, Raji; conditions: for IC50: MTT, 48 h, read-out: IC50 Raji
Method: as §1, §2, §3, §4, §5, §6, §7, §8

[6] = tested on: A549 lung cancer cell; test: MTT anti-proliferative assay, A549; conditions: for IC50: MTT, 48 h
Method: as §1, §2, §3, §4, §5, §6, §7, §8

[7] = tested on: BEL-7402 liver cancer cell; test: MTT anti-proliferative assay, BEL-7402; conditions: for IC50: MTT, 48 h
Method: as §1, §2, §3, §4, §5, §6, §7, §8

[8] = tested on: diffuse large B-cell lymphoma SU-DHL-10 cell; test: MTT anti-proliferative assay, SU-DHL-10; conditions: for IC50: MTT, 48 h, read-out: IC50 SU-DHL-10
Method: as §1, §2, §3, §4, §5, §6, §7, §8

[9] = tested on: HCT116 colectal cancer cell; test: MTT anti-proliferative assay, HCT116; conditions: for IC50: MTT, 48 h, read-out: IC50 HCT-116
Method: as §1, §2, §3, §4, §5, §6, §7, §8

[10] = tested on: HeLa cervical cancer cell; test: MTT anti-proliferative assay, HeLa; conditions: for IC50: MTT, 48 h
Method: as §1, §2, §3, §4, §5, §6, §7, §8

[11] = tested on: L-02 normal liver cell; test: MTT assay, L-02 normal cells; conditions: 48 h
Method: as §1, §2, §3, §4, §5, §6, §7, §8

[12] = tested on: MGC-803 late stage differentiation gastric cancer cell; test: MTT anti-proliferative assay, MGC-803; conditions: for IC50: MTT, 48 h
Method: as §1, §2, §3, §4, §5, §6, §7, §8

[13] = tested on: MCF-10A normal breast cell; test: MTT assay, MCF-10A normal cells; conditions: 48 h
Method: as §1, §2, §3, §4, §5, §6, §7, §8

| Compound | IC50 [1] [µM] | IC50 [2] [µM] | IC50 [3] [µM] | IC50 [4] [µM] | IC50 [5] [µM] | IC50 [6] [µM] | IC50 [7] [µM] | IC50 [8] [µM] | IC50 [9] [µM] | IC50 [10] [µM] | IC50 [11] [µM] | IC50 [12] [µM] | IC50 [13] [µM] | SI (selectivity index), IC50 (L-02)/IC50 (AGS) [1] | SI (selectivity index), IC50 (L-02)/IC50 (SGC-7901) [3] | SI (selectivity index), IC50 (L-02)/IC50 (Raji) [5] | SI (selectivity index), IC50 (L-02)/IC50 (HCT-116) [9] | also measured |
| --- | --- | --- | --- | --- | --- | --- | --- | --- | --- | --- | --- | --- | --- | --- | --- | --- | --- | --- |
| N#C/C(=C\c1ccccc1)c1ccc(OC(F)(F)F)cc1 [Compound 1a2a] | > 100 | > 100 | > 100 | > 100 | > 100 | > 100 | > 100 | > 100 | > 100 | > 100 | > 100 | > 100 | > 100 | – | – | – | – | – |
| N#C/C(=C\c1ccc(F)cc1)c1ccc(OC(F)(F)F)cc1 [Compound 1a2b] | 13.2 ± 3.3 | > 100 | > 100 | > 100 | 49 ± 7.4 | > 100 | 15 ± 2.7 | 38.8 ± 3.7 | 23.5 ± 4.6 | – | > 100 | 37.4 ± 5.8 | > 100 | – | – | – | – | – |
| N#C/C(=C\c1ccc(Cl)cc1)c1ccc(OC(F)(F)F)cc1 [Compound 1a2c] | 18.6 ± 3 | 20.7 ± 1.4 | 56.4 ± 9.7 | 55.2 ± 2.8 | 55.1 ± 3.2 | 65.8 ± 8.9 | > 100 | > 100 | 20.2 ± 1.7 | 72.3 ± 2.4 | > 100 | 35.2 ± 2.8 | > 100 | > 5.3 | > 1.7 | > 1.8 | > 4.9 | SI (selectivity index), IC50 (L-02)/IC50 (HepG-2) [2]: > 4.8; SI (selectivity index), IC50 (MCF-10A)/IC50 (MCF-7) [4]: > 1.8; SI (selectivity index), IC50 (L-02)/IC50 (A549) [6]: > 1.5; SI (selectivity index), IC50 (L-02)/IC50 (HeLa) [10]: > 1.3; SI (selectivity index), IC50 (L-02)/IC50 (MGC-803) [12]: > 2.8 |
| N#C/C(=C\c1ccc(Br)cc1)c1ccc(OC(F)(F)F)cc1 [Compound 1a2d] | 19.6 ± 2.9 | 24.3 ± 3.4 | > 100 | > 100 | 64.9 ± 1.5 | > 100 | > 100 | 73.5 ± 17.3 | 25.4 ± 6.8 | 87.3 ± 4.1 | > 100 | > 100 | > 100 | > 5.0 | – | > 1.5 | > 3.9 | SI (selectivity index), IC50 (L-02)/IC50 (HepG-2) [2]: > 4.1; SI (selectivity index), IC50 (L-02)/IC50 (SU-DHL-10) [8]: > 1.3; SI (selectivity index), IC50 (L-02)/IC50 (HeLa) [10]: > 1.1 |
| Cc1ccc(/C=C(\C#N)c2ccc(OC(F)(F)F)cc2)cc1 [Compound 1a2e] | 30.8 ± 7.9 | > 100 | > 100 | > 100 | > 100 | > 100 | > 100 | > 100 | > 100 | > 100 | > 100 | > 100 | > 100 | > 3.2 | – | – | – | – |
| CCc1ccc(/C=C(\C#N)c2ccc(OC(F)(F)F)cc2)cc1 [Compound 1a2f] | 14.6 ± 5.9 | > 100 | 77.9 ± 12.6 | 59.9 ± 2.3 | 42.7 ± 3.4 | > 100 | > 100 | 15.1 ± 11.6 | 43.5 ± 3.8 | > 100 | > 100 | 56.7 ± 11 | > 100 | > 6.8 | > 1.2 | > 2.3 | > 2.2 | SI (selectivity index), IC50 (MCF-10A)/IC50 (MCF-7) [4]: > 1.6; SI (selectivity index), IC50 (L-02)/IC50 (SU-DHL-10) [8]: > 6.6; SI (selectivity index), IC50 (L-02)/IC50 (MGC-803) [12]: > 1.7 |
| CC(C)c1ccc(/C=C(\C#N)c2ccc(OC(F)(F)F)cc2)cc1 [Compound 1a2g] | 8.7 ± 2.1 | > 100 | 89.9 ± 5.6 | > 100 | 66.6 ± 13.3 | 71.6 ± 24.7 | > 100 | 27.3 ± 5.3 | 57.4 ± 7.8 | > 100 | > 100 | > 100 | > 100 | > 11.4 | > 1.1 | > 1.5 | > 1.7 | SI (selectivity index), IC50 (L-02)/IC50 (A549) [6]: > 1.3; SI (selectivity index), IC50 (L-02)/IC50 (SU-DHL-10) [8]: > 3.6 |
| CN(C)c1ccc(/C=C(\C#N)c2ccc(OC(F)(F)F)cc2)cc1 [Compound 1a2h] | 69.6 ± 15.7 | > 100 | 19.7 ± 1.5 | > 100 | 67.4 ± 31.7 | > 100 | 24.1 ± 2.8 | > 100 | 8.7 ± 1.7 | > 100 | > 100 | 16.8 ± 0.7 | > 100 | > 1.4 | > 5.0 | > 1.4 | > 11.4 | SI (selectivity index), IC50 (L-02)/IC50 (BEL-7402) [7]: > 4.1; SI (selectivity index), IC50 (L-02)/IC50 (MGC-803) [12]: > 5.9 |
| CCN(CC)c1ccc(/C=C(\C#N)c2ccc(OC(F)(F)F)cc2)cc1 [Compound 1a2i] | > 100 | > 100 | > 100 | > 100 | 45.1 ± 15.6 | > 100 | > 100 | > 100 | > 100 | > 100 | > 100 | > 100 | > 100 | – | – | > 2.2 | – | – |
| COc1ccc(/C=C(\C#N)c2ccc(OC(F)(F)F)cc2)cc1 [Compound 1a2j] | 21.1 ± 5.2 | 72.6 ± 25.3 | > 100 | > 100 | > 100 | > 100 | > 100 | > 100 | 42.5 ± 12.3 | > 100 | > 100 | > 100 | 94.1 ± 3.5 | > 4.7 | – | – | > 2.3 | SI (selectivity index), IC50 (L-02)/IC50 (HepG-2) [2]: > 1.3 |
| COc1cccc(/C=C(\C#N)c2ccc(OC(F)(F)F)cc2)c1 [Compound 1a2k] | > 100 | > 100 | > 100 | > 100 | > 100 | > 100 | > 100 | > 100 | > 100 | > 100 | > 100 | > 100 | > 100 | – | – | – | – | – |
| COc1cc(/C=C(\C#N)c2ccc(OC(F)(F)F)cc2)cc(OC)c1OC [Compound 1a2l] | > 100 | > 100 | > 100 | > 100 | > 100 | > 100 | > 100 | > 100 | > 100 | > 100 | > 100 | > 100 | > 100 | – | – | – | – | – |
| CCCOc1ccc(/C=C(\C#N)c2ccc(OC(F)(F)F)cc2)cc1 [Compound 1a2m] | 87.2 ± 5.9 | > 100 | > 100 | > 100 | > 100 | > 100 | > 100 | > 100 | > 100 | > 100 | > 100 | > 100 | > 100 | > 1.4 | – | – | – | – |
